# Assay results published in publication PMC12765074, “Mechanistic insights into enterocin C targeting the undecaprenyl phosphate recycling protein BacA” (The Journal of Biological Chemistry, 2025).
# Where “and” joins values, the source holds several entries; their conditions need not be identical. Identical values can stand only once. Like-named read-outs stand apart in the source and are kept apart here. Marks after values point to notes of the source that are not given here.
# Experiments:
# [1] = test system: E. faecalis (V583-derivative strain, WT); format: cell-based, Enterococcus faecalis; settings: 6 μl droplets on a lawn of E. faecalis, BHI 0.75% agar, overnight; representative of three independent experiments
# [2] = test system: E. faecalis cells; assay: growth prevention in liquid culture; format: cell-based, Enterococcus faecalis
# [3] = test system: EfΔbacA cells carrying pIL:bacAef; assay: spot assay on bacA-complemented strain; format: cell-based, Enterococcus faecalis; settings: spot on BHI agar
# [4] = test system: E. faecalis EfΔbacA cells expressing catalytically inactive variants of BacAef (E20A, S26A, R172A); assay: spot-on-lawn assay, catalytic site mutants; format: cell-based, Enterococcus faecalis
# [5] = test system: E. faecalis EfΔbacA cells expressing BacAef variants (K209A variants); assay: spot-on-lawn assay, D106/D110/K209 variants; format: cell-based, Enterococcus faecalis; settings: compared to wild-type BacAef
# [6] = target: T1, BacAef (Enterococcus faecalis, UniProt A0ACD6TE02); format: biochemical; settings: DDM micelles; 20 mM Tris-HCl pH 7.4, 400 μM CaCl2, 150 mM NaCl, 0.1% DDM, 50 μM [14C]C55-PP, 10 min, 37 °C, TLC; EntC vs EntC1 p-value = 0.0007; read-out: IC50, BacAef C55-PP phosphatase activity
# [7] = target: T1, BacAef; assay: UppS-coupled C55-PP phosphatase assay in liposomes, BacAef; format: biochemical; settings: DOPC:DOPG:DOPE liposomes, 20 mM HEPES pH 7.5, 37 °C, 10 min, TLC
# Experimental: The reconstitution of BacA and PgpB in liposomes was achieved through adapted protocols previously described ([48]). Liposomes were prepared by rehydrating a lipid film of DOPC: DOPG: DOPE (3 mg: 0.75 mg: 1.25 mg) after 4 h of desiccation by adding 1 ml of buffer (20 mM HEPES, pH 7.5, 50 mM NaCl, 15% glycerol). […] The lipid suspension underwent 10 freeze-thaw cycles in liquid nitrogen and was extruded through a 100 nm polycarbonate membrane (Millipore). Protein reconstitution was performed by destabilizing the liposomes with 5.5 mM Triton X-100 for 15 min. The protein was added at a final concentration of 15 μg/ml and the mixture was incubated at 4 °C for 15 min.
# The liposomes were used to measure the C55-PP phosphatase activity of BacA in a membrane environment as follows. For each kinetic assay, 5 μl of a reaction mixture containing 20 μM C15-PP, 20 μM [^14C]C5-PP, 180 μM C5-PP in 20 mM HEPES, pH 7.5, 50 mM NaCl, and 15% glycerol were mixed with 5 μl of protein-free liposomes (as a control) or BacA-containing liposomes. The mixture was then supplemented with UppS at a final concentration of 0.2 mg/ml to initiate the enzymatic synthesis of C55-PP. The EntC peptides were added at various concentrations from a water solution. […] Substrates and products were separated and quantified by thin-layer chromatography as previously described for C55-PP phosphatase assay in detergent.
# [8] = liposome permeabilisation assay (BCECF), protein-free; format: biochemical; settings: 5 μM EntC, internal pH 8, external pH 6
# [9] = target: T1, BacAef; assay: DSS crosslinking; format: binding; settings: BacAef and peptide 17 μM each, DSS 100- or 1000-fold excess, 30 min, 4 °C
# Experimental: Crosslinking experiments were performed using the amine-reactive, membrane-permeable, and non-cleavable crosslinker disuccinimidyl suberate (DSS) purchased from Sigma. EntC peptides and BacA protein were mixed at equimolar concentrations (17 μM) in buffer D in the presence of an excess of DSS crosslinker (1000-fold or 100-fold) in a final reaction volume of 20 μl. The reaction was incubated for 30 min at 4°C, and any unreacted DSS was quenched with 50 mM Tris-HCl. After separation on a 12% acrylamide gel, proteins were electrotransferred onto polyvinylidene difluoride (PVDF) membrane, and BacA was detected using peroxidase-coupled anti-His tag antibody (Penta-His HRP conjugate from Qiagen, RRID: AB_3699318) by chemiluminescence detection (Western Lightning Plus-ECL, PerkinElmer) using the ChemiDoc MP system (Bio-Rad).
# [10] = target: T1, BacAef; assay: ITC, BacAef; format: binding; settings: ITC, 20 °C
# Experimental: (§2) ITC experiments were performed with an ITC200 isothermal titration calorimeter from MicroCal (Malvern Panalytical, Malvern, UK). The experiments were carried out at 20 °C. The protein concentration in the microcalorimeter cell (0.2 ml) was 33 μM. Nineteen 2-μl injections of peptides at 400 μM were performed at intervals of 240 s while stirring at 500 rpm. To limit buffer mismatching effect between the cell and the syringe, and the heat-of-dilution effect for having glycerol in the protein solution, the latter were extensively dialyzed, prior to the ITC measurement, in a buffer containing 20 mM Tris-HCl pH 7.4, 200 mM NaCl, 0.1% DDM, to remove glycerol. Then, the dialysis buffer was used to dilute the EntC peptides to further limit buffer mismatching. The experimental data were fitted to theoretical titration curves with the software supplied by MicroCal (ORIGIN). This software uses the relationship between the heat generated by each injection and ΔH (enthalpy change in kcal/mol), Ka (the association binding constant in M^−1), n (the number of binding sites), total protein concentration and free and total ligand concentrations.
# [11] = target: BacAef S26A (Enterococcus faecalis, UniProt A0ACD6TE02, S38A); assay: ITC, BacAef S26A; format: binding; settings: 20 °C
# Experimental: (§1) The experiments were carried out at 20 °C.
# [12] = target: BacAef R172A (Enterococcus faecalis, UniProt A0ACD6TE02, R184A); assay: ITC, BacAef R172A; format: binding; settings: 20 °C
# Experimental: as §1
# [13] = target: BacAef K209A (Enterococcus faecalis, UniProt A0ACD6TE02, K221A); assay: ITC, BacAef K209A; format: binding; settings: 20 °C
# Experimental: as §1
# [14] = target: BacAef K209A D110A D106A; assay: ITC, BacAef K209A D110A D106A; format: binding, Enterococcus faecalis; settings: 20 °C, 400 μM into [BacAef K209A D110A D106A] 33 μM, pH 7.4, 0.1% DDM, at least triplicate
# Experimental: as §1
# [15] = test system: E. faecalis EfΔbacA cells expressing BacAef; assay: survival test; format: cell-based, Enterococcus faecalis; settings: 0.5 μM EntC, 30 min
# [16] = test system: E. faecalis EfΔbacA cells expressing BacAef S26A; assay: survival test; format: cell-based, Enterococcus faecalis; settings: 0.5 μM EntC, 30 min, 37 °C, p ≤ 0.01, three experiments
# [17] = test system: E. faecalis EfΔbacA cells expressing BacAef D106A; assay: survival test; format: cell-based, Enterococcus faecalis; settings: 0.5 μM EntC, 30 min, 37 °C, three experiments
# [18] = test system: E. faecalis EfΔbacA cells expressing BacAef K209A D106A; assay: survival test; format: cell-based, Enterococcus faecalis; settings: 0.5 μM EntC, 30 min, 37 °C, p ≤ 0.01, three experiments
# [19] = test system: E. faecalis EfΔbacA cells expressing BacAef D106A D110A; assay: survival test; format: cell-based, Enterococcus faecalis; settings: 0.5 μM EntC, 30 min, 37 °C, three experiments
# [20] = test system: BacAef-liposomes; settings: 5 μM EntC, internal pH 8, external pH 6, peptide:lipid c.a. 1:1300, without EntC 1.10^-4 sec^-1
# [21] = target: BacAec (Escherichia coli, UniProt P60932); settings: titration of EntC into BacAec
# BacAec, sequence (P60932 whole entry): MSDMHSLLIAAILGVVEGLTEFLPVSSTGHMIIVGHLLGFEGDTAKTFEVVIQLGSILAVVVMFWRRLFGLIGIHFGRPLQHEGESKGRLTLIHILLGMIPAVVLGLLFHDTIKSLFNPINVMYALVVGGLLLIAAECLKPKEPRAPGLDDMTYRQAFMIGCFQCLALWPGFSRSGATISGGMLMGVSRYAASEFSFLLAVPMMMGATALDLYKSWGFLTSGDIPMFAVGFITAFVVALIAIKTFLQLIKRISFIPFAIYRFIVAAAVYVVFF
# Experimental: as §2
# [22] = test system: E. faecalis; settings: ref [17]; cited from earlier work
substance,measurement,setting,value
Enterocin C [EntC],"antibacterial activity (spot-on-lawn), E. faecalis",[1],E. faecalis was only susceptible to EntC
same,concentration required to prevent the growth of E. faecalis cells,[2]; BHI,100 nM
same,concentration required to prevent the growth of E. faecalis cells,[2]; M17,50 nM
same,concentration required to prevent the growth of E. faecalis cells,[2]; MRS,2 nM
same,susceptibility of EfΔbacA strain with ectopic bacA,[3],fully restored
same,susceptibility of EfΔbacA expressing catalytic site mutant alleles,[4],"restored with a plasmid expressing wild-type bacAef or any of the three catalytic site mutant alleles, although a slight decrease of the susceptibility was observed with R172A variant"
same,susceptibility of EfΔbacA expressing K209A variants,[5],small reduction in susceptibility
same,IC50,[6],0.4 ± 0.1 µM
same,IC50,[7],1.2 ± 0.1 µM
same,membrane permeabilization of protein-free liposomes,[8],did not affect protein-free liposomes
same,"crosslinked complex band with BacAef (SDS-PAGE, western blot)",[9],two faint bands appeared above the BacA monomer
same,-TΔS,[10]; into [BacAef] 33 μM,59 kJ/mol
same,ΔG,[10]; into [BacAef] 33 μM,-37.7 kJ/mol
same,ΔH,[10]; into [BacAef] 33 μM,-96.7 kJ/mol
same,Kd,"[10]; peptides 400 μM into [BacAef] 33 μM, 20 mM Tris-HCl pH 7.4, 200 mM NaCl, 0.1% DDM, at least triplicate",0.196 ± 0.047 µM
same,n,"[10]; peptides 400 μM into [BacAef] 33 μM, pH 7.4, 0.1% DDM, at least triplicate",0.90 ± 0.01
same,n,[11]; 400 μM into [BacAef S26A] 33 μM,0.80 ± 0.02
same,Kd,"[11]; 400 μM into [BacAef S26A] 33 μM, pH 7.4, 0.1% DDM, at least triplicate",0.439 ± 0.125 µM
same,-TΔS,[11]; into [BacAef S26A],35.6 kJ/mol
same,ΔG,[11]; into [BacAef S26A],-35.6 kJ/mol
same,ΔH,[11]; into [BacAef S26A],-71.1 kJ/mol
same,n,[12]; 400 μM into [BacAef R172A] 33 μM,0.30 ± 0.03
same,Kd,"[12]; 400 μM into [BacAef R172A] 33 μM, pH 7.4, 0.1% DDM, at least triplicate",1.61 ± 0.65 µM
same,-TΔS,[12]; into [BacAef R172A],15.1 kJ/mol
same,ΔG,[12]; into [BacAef R172A],-32.6 kJ/mol
same,ΔH,[12]; into [BacAef R172A],-47.7 kJ/mol
same,n,[13]; 400 μM into [BacAef K209A] 33 μM,0.46 ± 0.02
same,Kd,"[13]; 400 μM into [BacAef K209A] 33 μM, pH 7.4, 0.1% DDM, at least triplicate",1.84 ± 0.335 µM
same,-TΔS,[13]; into [BacAef K209A],0.42 kJ/mol
same,ΔH,[13]; into [BacAef K209A],-34.7 kJ/mol
same,KD,[14],No binding
same,% of survival,"[15]; 37 °C, BHI, CFU vs same cells without EntC, three independent experiments",<1%
same,cells killed,[15]; exponentially growing cells expressing wild-type BacAef,more than 99%
same,% of survival,[16],6.8% and 6.8 ± 2.4 ^c %
same,% of survival,[17],1.6 ± 1.0%
same,% of survival,[18],14 ± 4.0 ^c %
same,% of survival,[19],4.0 ± 3.0%
same,rate of decrease of BCECF fluorescence,[20],about 6.10^-4 sec^-1
same,binding to BacAec (ITC),[21],no binding
same,activity against E. faecalis,[22],active against the opportunistic pathogen E. faecalis
